{
  "source": "patent US10798955B2",
  "about": "“Compositions of particulate coformulation” (Nektar Therapeutics, priority 2000, dated 2020)",
  "test": "Storage stability at room temperature and 100% relative humidity",
  "format": "physicochemical",
  "conditions": "200 mg stored for a month at room temperature and 100% relative humidity",
  "experimental": "For the assessment of stability, 200 mg of the Example A6 product (60% w/w QS in EC) was stored for a month at room temperature and 100% relative humidity, alongside a sample of the as-received pure QS.",
  "data": [
    {"smiles": "C=C[C@H]1C[N@@]2CC[C@H]1C[C@H]2[C@H](O)c1ccnc2ccc(OC)cc12", "note": "[quinine sulphate]", "values": [
      {"measurement": "powder physical appearance and flow properties after storage", "result": "signs of partial caking and a lower degree of powder flowability"}
    ]}
  ]
}
